Assay results reported in patent US11497212B2, “Substituted thiophenyl uracils, salts thereof and the use thereof as herbicidal agents” (Syngenta Crop Protection AG, priority 2017, dated 2022).

Experiments:
Format in all cases: in vivo
Abutilon theophrasti [1] = experiment: Herbicidal action post-emergence (greenhouse pot trial); details: application rate 80 g/ha, scored visually after about 3 weeks vs untreated controls
Summary of the method: (§1)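 Weed seeds sown in sandy loam were grown in a greenhouse for 2–3 weeks and treated at the one-leaf stage. WP or EC formulations, with 0.5% additive, were sprayed on green parts at a water rate of 600 L/ha and at 80 g/ha or lower. Efficacy was scored visually about 3 weeks later against untreated controls.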

Alopecurus myosuroides [2] = experiment: as above; details: application rate 80 g/ha, scored visually after about 3 weeks vs untreated controls
Summary of the method: as §1

Amaranthus retroflexus [3] = experiment: as above; details: application rate 80 g/ha, scored visually after about 3 weeks vs untreated controls
Summary of the method: as §1

Echinochloa crus-galli [4] = experiment: as above; details: application rate 80 g/ha, scored visually after about 3 weeks vs untreated controls
Summary of the method: as §1

Lolium rigidum [5] = experiment: as above; details: application rate 80 g/ha, scored visually after about 3 weeks vs untreated controls
Summary of the method: as §1

Matricaria inodora [6] = experiment: as above; details: application rate 80 g/ha, scored visually after about 3 weeks vs untreated controls
Summary of the method: as §1

Pharbitis purpurea [7] = experiment: as above; details: application rate 80 g/ha
Summary of the method: as §1

Polygonum convolvulus = experiment: as above; details: application rate 80 g/ha, scored visually after about 3 weeks vs untreated controls
Summary of the method: as §1

Setaria viridis [8] = experiment: as above; details: application rate 80 g/ha, scored visually after about 3 weeks vs untreated controls
Summary of the method: as §1

Stellaria media [9] = experiment: as above; details: application rate 80 g/ha, scored visually after about 3 weeks vs untreated controls
Summary of the method: as §1

Veronica persica [10] = experiment: as above; details: application rate 80 g/ha
Summary of the method: as §1

Viola tricolor [11] = experiment: as above; details: application rate 80 g/ha
Summary of the method: as §1

Oryza sativa = experiment: Crop compatibility post-emergence (greenhouse pot trial)
Summary of the method: (§2)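 Compatibility is expressed as visually scored percent injury, where 0% means no difference from untreated controls and 100% means dead plants, assessed about 3 weeks after a foliar spray at 600 L/ha with 0.5% additive on one-leaf-stage pot plants in sandy loam.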

Triticum aestivum = experiment: as above
Summary of the method: as §2

Zea mays [12] = experiment: as above; details: application rate 20 g/ha
Summary of the method: as §2

Abutilon theophrasti [13] = experiment: Herbicidal action pre-emergence (greenhouse pot trial); details: application rate 320 g/ha, scored after about 3 weeks
Summary of the method: (§3)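 Pre-emergence: WP or EC formulations sprayed onto covering soil over sown seeds as aqueous suspension/emulsion with 0.5% additive, 600 L/ha water, at 320 g/ha or lower. Visual percent efficacy versus untreated controls after about 3 weeks in greenhouse (100% = plants dead).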

Alopecurus myosuroides [14] = experiment: as above; details: application rate 320 g/ha, scored after about 3 weeks
Summary of the method: as §3

Amaranthus retroflexus [15] = experiment: as above; details: application rate 320 g/ha, scored after about 3 weeks
Summary of the method: as §3

Avena fatua = experiment: as above; details: application rate 320 g/ha
Summary of the method: as §3

Cyperus esculentus = experiment: as above; details: application rate 320 g/ha
Summary of the method: as §3

Echinochloa crus-galli [16] = experiment: as above; details: application rate 320 g/ha, scored after about 3 weeks
Summary of the method: as §3

Hordeum murinum [17] = experiment: as above; details: application rate 320 g/ha
Summary of the method: as §3

Lolium rigidum [18] = experiment: as above; details: application rate 320 g/ha
Summary of the method: as §3

Matricaria inodora [19] = experiment: as above; details: application rate 320 g/ha, scored after about 3 weeks
Summary of the method: as §3

Pharbitis purpurea [20] = experiment: as above; details: application rate 320 g/ha
Summary of the method: as §3

Setaria viridis [21] = experiment: as above; details: application rate 320 g/ha, scored after about 3 weeks
Summary of the method: as §3

Stellaria media [22] = experiment: as above; details: application rate 320 g/ha, scored after about 3 weeks
Summary of the method: as §3

Veronica persica [23] = experiment: as above; details: application rate 320 g/ha
Summary of the method: as §3

Viola tricolor [24] = experiment: as above; details: application rate 320 g/ha, scored after about 3 weeks
Summary of the method: as §3

Zea mays [25] = experiment: Crop compatibility pre-emergence (greenhouse pot trial); details: effect vs untreated controls
Summary of the method: (§4)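 Visual percentage scoring against untreated controls, about 3 weeks after treatment, gave the crop injury values (100% = plants died, 0% = like controls). Compounds, as wettable powders or emulsion concentrates, were sprayed onto covering soil over sown seeds at 600 L/ha water with 0.5% additive.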

Digitaria sanguinalis [26] = experiment: Herbicidal action post-emergence (greenhouse pot trial); details: application rate 80 g/ha
Summary of the method: as §1

Hordeum murinum [27] = experiment: as above; details: application rate 80 g/ha, scored visually after about 3 weeks vs untreated controls
Summary of the method: as §1

Digitaria sanguinalis [28] = experiment: Herbicidal action pre-emergence (greenhouse pot trial); details: application rate 80 g/ha
Summary of the method: as §3

Glycine max = experiment: Crop compatibility pre-emergence (greenhouse pot trial); details: application rate 80 g/ha, effect vs untreated controls
Summary of the method: as §4

| Compound | Abutilon theophrasti (Efficacy in %) (Abutilon theophrasti [1]) | Alopecurus myosuroides (Efficacy in %) (Alopecurus myosuroides [2]) | Amaranthus retroflexus (Efficacy in %) (Amaranthus retroflexus [3]) | Echinochloa crus-galli (Efficacy in %) (Echinochloa crus-galli [4]) | Lolium rigidum (Efficacy in %) (Lolium rigidum [5]) | Matricaria inodora (Efficacy in %) (Matricaria inodora [6]) | Pharbitis purpurea (Efficacy in %) (Pharbitis purpurea [7]) | Polygonum convolvulus (Efficacy in %) (Polygonum convolvulus) | Setaria viridis (Efficacy in %) (Setaria viridis [8]) | Stellaria media (Efficacy in %) (Stellaria media [9]) | Veronica persica (Efficacy in %) (Veronica persica [10]) | Viola tricolor (Efficacy in %) (Viola tricolor [11]) | Abutilon theophrasti (Efficacy in %) (Abutilon theophrasti [13]) | Amaranthus retroflexus (Efficacy in %) (Amaranthus retroflexus [15]) | Echinochloa crus-galli (Efficacy in %) (Echinochloa crus-galli [16]) | Hordeum murinum (Efficacy in %) (Hordeum murinum [17]) | Lolium rigidum (Efficacy in %) (Lolium rigidum [18]) | Matricaria inodora (Efficacy in %) (Matricaria inodora [19]) | Pharbitis purpurea (Efficacy in %) (Pharbitis purpurea [20]) | Setaria viridis (Efficacy in %) (Setaria viridis [21]) | other results |
| --- | --- | --- | --- | --- | --- | --- | --- | --- | --- | --- | --- | --- | --- | --- | --- | --- | --- | --- | --- | --- | --- |
| COCCOC(=O)C(C)Sc1cc(-n2c(=O)cc(C(F)(F)F)n(C)c2=O)c(F)cc1Cl (stereo not drawn) [I.1-1] | 100% | 80% | 100% | 100% | 90% | 100% | 100% | 100% | 100% | 100% | 100% | 100% | 100% | 100% | 100% | 90% | 80% | 100% | 100% | 100% | Oryza sativa (Efficacy in %) (Oryza sativa; application rate 5 g/ha): 20%; Triticum aestivum (Efficacy in %) (Triticum aestivum; application rate 5 g/ha): 20%; Zea mays (Efficacy in %) (Zea mays [12]): 20%; Alopecurus myosuroides (Efficacy in %) (Alopecurus myosuroides [14]): 80%; Avena fatua (Efficacy in %) (Avena fatua): 90%; Cyperus esculentus (Efficacy in %) (Cyperus esculentus): 100%; Stellaria media (Efficacy in %) (Stellaria media [22]): 100%; Veronica persica (Efficacy in %) (Veronica persica [23]): 100%; Viola tricolor (Efficacy in %) (Viola tricolor [24]): 100%; Zea mays (Efficacy in %) (Zea mays [25]; application rate 20 g/ha): 20% |
| CCOCCCOC(=O)C(C)Sc1cc(-n2c(=O)cc(C(F)(F)F)n(C)c2=O)c(F)cc1Cl (stereo not drawn) [I.1-27] | 100% | 90% | 100% | 100% | 80% | 100% | 100% | 100% | 100% | 100% | 100% | 100% | 100% | 100% | 100% | 80% | 90% | 100% | 100% | 100% | Digitaria sanguinalis (Efficacy in %) (Digitaria sanguinalis [26]): 100%; Hordeum murinum (Efficacy in %) (Hordeum murinum [27]): 80%; Oryza sativa (Efficacy in %) (Oryza sativa; application rate 5 g/ha): 10%; Triticum aestivum (Efficacy in %) (Triticum aestivum; application rate 5 g/ha): 10%; Alopecurus myosuroides (Efficacy in %) (Alopecurus myosuroides [14]): 80%; Digitaria sanguinalis (Efficacy in %) (Digitaria sanguinalis [28]): 100%; Stellaria media (Efficacy in %) (Stellaria media [22]): 100%; Veronica persica (Efficacy in %) (Veronica persica [23]): 100%; Viola tricolor (Efficacy in %) (Viola tricolor [24]): 100%; Glycine max (Efficacy in %) (Glycine max): 20%; Zea mays (Efficacy in %) (Zea mays [25]; application rate 80 g/ha): 0% |
| CC1CC(COC(=O)C(C)Sc2cc(-n3c(=O)cc(C(F)(F)F)n(C)c3=O)c(F)cc2Cl)CO1 (stereo not drawn) [I.1-73] | 100% | 90% | 100% | 100% | 90% | 100% | 100% | 100% | 100% | 100% | 100% | 100% | 100% | 100% | 100% | 90% | 100% | 100% | 100% | 100% | Digitaria sanguinalis (Efficacy in %) (Digitaria sanguinalis [26]): 100%; Hordeum murinum (Efficacy in %) (Hordeum murinum [27]): 80%; Oryza sativa (Efficacy in %) (Oryza sativa; application rate 20 g/ha): 5%; Triticum aestivum (Efficacy in %) (Triticum aestivum; application rate 80 g/ha): 20%; Avena fatua (Efficacy in %) (Avena fatua): 90%; Digitaria sanguinalis (Efficacy in %) (Digitaria sanguinalis [28]): 100%; Stellaria media (Efficacy in %) (Stellaria media [22]): 100%; Veronica persica (Efficacy in %) (Veronica persica [23]): 100%; Viola tricolor (Efficacy in %) (Viola tricolor [24]): 100%; Glycine max (Efficacy in %) (Glycine max): 0%; Zea mays (Efficacy in %) (Zea mays [25]; application rate 80 g/ha): 0% |
| CC(Sc1cc(-n2c(=O)cc(C(F)(F)F)n(C)c2=O)c(F)cc1Cl)C(=O)NCC1CCCS1(=O)=O (stereo not drawn) [I.1-275] | 100% | 90% | 100% | 90% | 80% | 100% | 100% | 100% | 100% | 100% | 100% | 100% | 100% | 100% | 100% | 90% | 90% | 100% | 100% | 100% | Oryza sativa (Efficacy in %) (Oryza sativa; application rate 20 g/ha): 20%; Triticum aestivum (Efficacy in %) (Triticum aestivum; application rate 20 g/ha): 20%; Alopecurus myosuroides (Efficacy in %) (Alopecurus myosuroides [14]): 100%; Avena fatua (Efficacy in %) (Avena fatua): 100%; Cyperus esculentus (Efficacy in %) (Cyperus esculentus): 80%; Stellaria media (Efficacy in %) (Stellaria media [22]): 100%; Veronica persica (Efficacy in %) (Veronica persica [23]): 100%; Viola tricolor (Efficacy in %) (Viola tricolor [24]): 100% |
